{
  "source": "patent US20050153967A1",
  "about": "“Pharmaceutical compositions comprising 2-(4-ethoxy-phenyl)-3-(4-methanesulfonyl-phenyl)-pyrazolo'1,5-bipyridazine in nanoparticulate form” (priority 2002, published 2005)",
  "key": {"[1]": {"test": "Dissolution testing (in vitro prediction of bioavailability)", "format": "physicochemical", "description": "Dissolution testing is a well established technique for obtaining a correlation between in vitro and in vivo data in relation to compound bioavailability. […] As a result attempts were made to improve the bioavailability of compound (I). WO01/41760 (Pharmacia Corporation) discloses that the bioavailability of selective COX-2 inhibitory drugs of low water solubility may be enhanced by reducing the drug particle size, such that a substantial proportion are smaller than 1 μm."}, "cyclooxygenase-2 (COX-2)": {"biological_target": "T1, cyclooxygenase-2 (COX-2) (Homo sapiens, UniProt P35354)", "T1 sequence (P35354 18-604)": "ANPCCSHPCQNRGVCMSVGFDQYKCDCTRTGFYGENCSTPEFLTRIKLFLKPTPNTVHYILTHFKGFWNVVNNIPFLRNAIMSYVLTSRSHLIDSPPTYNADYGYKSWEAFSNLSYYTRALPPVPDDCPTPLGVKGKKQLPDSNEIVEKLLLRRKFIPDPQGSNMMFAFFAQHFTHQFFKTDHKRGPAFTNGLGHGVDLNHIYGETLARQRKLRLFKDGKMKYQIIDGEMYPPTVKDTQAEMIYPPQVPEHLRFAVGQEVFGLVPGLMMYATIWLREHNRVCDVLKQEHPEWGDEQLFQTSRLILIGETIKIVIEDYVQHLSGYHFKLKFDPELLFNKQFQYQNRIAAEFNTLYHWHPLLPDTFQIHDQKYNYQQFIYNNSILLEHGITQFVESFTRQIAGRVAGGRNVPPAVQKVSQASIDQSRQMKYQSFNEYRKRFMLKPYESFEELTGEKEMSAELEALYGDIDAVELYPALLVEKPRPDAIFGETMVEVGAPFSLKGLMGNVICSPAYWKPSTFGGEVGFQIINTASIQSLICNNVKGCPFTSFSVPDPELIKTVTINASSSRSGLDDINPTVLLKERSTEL", "settings": "cited from earlier work"}},
  "data": [
    {"molecule": "CCOc1ccc(-c2nn3ncccc3c2-c2ccc(S(C)(=O)=O)cc2)cc1", "note": "[compound (I), 2-(4-ethoxy-phenyl)-3-(4-methanesulfonyl-phenyl)-pyrazolo[1,5-b]pyridazine]", "values": [
      {"measurement": "dissolution, indicated bioavailability", "setting": "[1]; co-formulation with HPMC-AS in an amorphous dispersion", "value": "enhanced"},
      {"measurement": "dissolution, predicted bioavailability", "setting": "[1]; compound (I) in micronised form, preliminary dissolution experiments", "value": "poorly bioavailable"},
      {"measurement": "dissolution profile", "setting": "[1]; pharmaceutical composition with compound (I) in nanoparticulate form", "value": "poor dissolution profile"},
      {"measurement": "inhibition of cyclooxygenase-2 (COX-2)", "setting": "cyclooxygenase-2 (COX-2)", "value": "potent and selective inhibitor"}
    ]}
  ]
}
